Paper PMC3030572, “Antamanide, a Derivative of Amanita phalloides, Is a Novel Inhibitor of the Mitochondrial Permeability Transition Pore” (PLoS ONE, 2011)
Entries after “also recorded” stand apart in the source; their conditions may differ.

Experiments:
[1] = test system: mitochondria from CyP-D knock-out fibroblasts; assay: mitochondrial respiration assay, CyP-D knock-out fibroblast mitochondria; assay type: biochemical, mouse; settings: polarography, Clark electrode, 25°C
Protocol: Figure 3 Effect of AA on respiration and PTP opening in mitochondria of wild-type or CyP-D knock-out mouse fibroblasts. A, upper part: Western blot analysis assessing CyP-D expression in fibroblasts obtained from either wild-type or CyP-D knock-out mice; HKII was utilized to verify protein load; lower part: representative experiment showing oxygen consumption as assessed by polarography (see Methods) in mitochondria isolated from wild-type fibroblasts in the absence (a) or presence (b) of 8 µM AA. Experiments were started by adding 0.6 mg of mitochondria (Mito), followed by 100 µM ADP and 50 µM 2,4-dinitrophenol (DNP) (arrows). Each experiment was repeated at least three times. Oxygen consumption is reported as percentage of initial value on the y axis. B, bar graphs report the ratio between the CRC detected in the presence (CRC) and absence (CRC0) of increasing concentrations of AA, in mitochondria from either wild-type fibroblasts (left) or CyP-D knock-out fibroblasts (right). […] Results are mean±SD of at least 4 experiments.
Mitochondrial oxygen consumption was measured polarographically at 25°C with a Clark oxygen electrode (Yellow Springs Instruments, OH, USA). Mitochondria (0.6 mg per experimental point) were incubated in a solution of 130 mM KCl, 10 mM Tris-Mops, 1 mM Pi-Tris, 20 mM EGTA-Tris and 2 µM rotenone/5 mM succinate to assay basal respiration (state 4). […]

[2] = test system: mitochondrial permeability transition pore (PTP), HeLa cells; assay: CRC assay, mitochondria isolated from HeLa cells; assay type: biochemical, human; settings: Figure 5A
Protocol: Figure 5 Effect of AA on mitochondrial potential of HeLa cells. A, bar graphs report the ratio between the CRC detected in the presence (CRC) and absence (CRC0) of increasing concentrations of AA in mitochondria from HeLa cells. […] B,C cytofluorimetric analysis of mitochondrial depolarization. HeLa cells were incubated with the TMRM probe and treated for 1 hour with the reported concentrations of either clotrimazole (CTM) or TAT-HK peptide. An unrelated TAT-linked peptide (TAT-Ctr) is used as a negative control. […] Bar graphs in B display the percentage of cells with depolarized mitochondria (mean±SD, n = 4). […] Histograms in C report a representative experiment, where cells with polarized and depolarized mitochondria are indicated in red and grey, respectively.
Mitochondria were isolated either from livers of C57BL/6 mice through sequential centrifugations, or from cells, as described. To obtain mitochondria, cells were disrupted with a glass-Teflon potter in a buffer composed by 250 mM sucrose, 10 mM Tris-HCl, 0.1 mM EGTA-Tris, pH 7.4. Nuclei and plasma membrane fractions were separated by a first mild centrifugation (700× g, 10 min), and mitochondria were then spinned down at a higher speed (7000× g, 10 min). All procedures were carried out at 0–4°C.
PTP opening was detected as a fluorescence increase.

[3] = test system: phallotoxins and amatoxins; settings: cited from earlier work
Source text: Antamanide (AA) is a monocyclic, homodetic decapeptide isolated from the poisonous mushroom Amanita phalloides. […] Little is known about the biochemical mechanisms underlying these diverse bioactivities.

## Antamanide [AA]
[1]
  oxygen consumption: unaffected
[2]; AA at various concentrations, mean±SD of at least 4 experiments, Student's t test
  CRC/CRC0: difference from CRC of untreated mitochondria: significant difference (Student's t test analysis; *: p<0.01)
[2]; combination with CsA
  additivity of PTP inhibition with CsA: the effect of AA did not add to that of CsA; also recorded: not additive
[2]; mitochondria from HeLa cells
  PTP inhibition (CRC): AA inhibited the pore also in mitochondria isolated from HeLa cells
[3]; ref [2]
  antidote activity: strong antidote activity against phallotoxins and amatoxins
[3]; ref [8], [9]
  abrogation of toxic effects of phalloidin: abrogates the toxic effects of the phallotoxin phalloidin
